Reference: ChEMBL document CHEMBL4613264, “Design, Synthesis, and Biological Evaluation of New Peripheral 5HT2A Antagonists for Nonalcoholic Fatty Liver Disease” (J Med Chem, 2020)
The source made the active and inactive calls. The rule behind the calls is not given here.

How the values were obtained:
[1] = target: T1, 5-hydroxytryptamine receptor 2A (Homo sapiens, UniProt P28223); test: Antagonist activity at 5HT2A receptor (unknown origin) expressed in HEK293 cells assessed as inhibition of serotonin hydrochloride-induced calcium flux preincubated for 1 hr followed by serotonin hydrochloride addition by calcium 6 dye based FLIPR assay; assay type: functional, cell-based
Mus musculus [2] = test: Protection against 10 week HFD-induced liver disease in C57BL/6J mouse assessed as reduction in liver weight at 50 to 100 mg/kg, ip administered daily for 10 weeks and measured post last dose; assay type: functional, organism-based
Vero = test: Cytotoxicity against African green monkey Vero cells; assay type: cell-based; settings: Chlorocebus sabaeus
[3] = target: T2, 5-hydroxytryptamine receptor 3A (Homo sapiens) (UniProt P46098); test: Antagonist activity at 5HT3 (unknown origin) at 1 uM relative to control
T2 sequence (whole entry): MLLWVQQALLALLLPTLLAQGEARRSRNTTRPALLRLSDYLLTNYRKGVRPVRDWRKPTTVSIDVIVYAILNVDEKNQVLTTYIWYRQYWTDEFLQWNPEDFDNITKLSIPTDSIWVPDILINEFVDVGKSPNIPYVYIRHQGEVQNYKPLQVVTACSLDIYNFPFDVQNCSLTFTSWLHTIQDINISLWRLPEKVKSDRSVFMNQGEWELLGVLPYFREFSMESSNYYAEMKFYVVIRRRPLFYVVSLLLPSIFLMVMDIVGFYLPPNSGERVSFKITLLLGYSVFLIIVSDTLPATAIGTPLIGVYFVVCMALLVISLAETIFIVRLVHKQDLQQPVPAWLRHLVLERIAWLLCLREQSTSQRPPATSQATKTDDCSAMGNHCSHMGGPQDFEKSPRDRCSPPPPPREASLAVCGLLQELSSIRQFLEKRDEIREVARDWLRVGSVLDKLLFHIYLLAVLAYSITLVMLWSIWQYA

Mus musculus [4] = test: Protection against 10 week HFD-induced liver disease in C57BL/6J mouse assessed as reduction in hepatic triglyceride accumulation at 50 to 100 mg/kg, ip administered daily for 10 weeks and measured post last dose by H and E staining based histological analysis; assay type: functional, organism-based
Mus musculus [5] = test: Protection against 10 week HFD-induced liver disease in C57BL/6J mouse assessed as reduction in brown adipose tissue fat mass at 50 to 100 mg/kg, ip administered daily for 10 weeks and measured post last dose by H and E staining based histological analysis; assay type: functional, organism-based
Mus musculus [6] = test: Protection against 10 week HFD-induced liver disease in C57BL/6J mouse assessed as reduction in inguinal white adipose tissue fat mass at 50 to 100 mg/kg, ip administered daily for 10 weeks and measured post last dose by H and E staining based histological analysis; assay type: functional, organism-based
Mus musculus [7] = test: Protection against 10 week HFD-induced liver disease in C57BL/6J mouse assessed as reduction in hepatic triglyceride accumulation at 50 to 100 mg/kg, ip administered daily for 10 weeks and measured post last dose by triglyceride reagent based colorimetric analysis; assay type: functional, organism-based
hERG (KCNH2) = hERG (KCNH2) (Homo sapiens, UniProt Q12809); test: Inhibition of human ERG at 10 uM relative to control
L929 = test: Cytotoxicity against mouse L929 cells; assay type: cell-based
[8] = Half life in Sprague-Dawley rat at 5 mg/kg, iv by LC-MS/MS analysis; assay type: ADME, organism-based; settings: in vivo
in vitro = settings: rat, liver microsomes
Description: Stability in rat liver microsomes assessed as parent compound remaining measured after 30 mins

[9] = target: 5-hydroxytryptamine receptor 2B (Homo sapiens) (UniProt P41595); test: Antagonist activity at recombinant human full-length 5HT2B receptor expressed in CHOK1 cells assessed as inhibition of serotonin-induced inositol phosphate accumulation at 1 uM measured after 30 mins by TR-FRET assay relative to control; assay type: functional, cell-based; settings: CHO-K1
[10] = target: T3, 5-hydroxytryptamine receptor 2C (Homo sapiens) (UniProt P28335); test: Antagonist activity at recombinant human 5HT2C receptor expressed in HEK293 cells assessed as inhibition of serotonin-induced inositol phosphate accumulation at 1 uM measured after 30 mins by HTRF assay relative to control; assay type: functional, cell-based
T3 sequence (whole entry): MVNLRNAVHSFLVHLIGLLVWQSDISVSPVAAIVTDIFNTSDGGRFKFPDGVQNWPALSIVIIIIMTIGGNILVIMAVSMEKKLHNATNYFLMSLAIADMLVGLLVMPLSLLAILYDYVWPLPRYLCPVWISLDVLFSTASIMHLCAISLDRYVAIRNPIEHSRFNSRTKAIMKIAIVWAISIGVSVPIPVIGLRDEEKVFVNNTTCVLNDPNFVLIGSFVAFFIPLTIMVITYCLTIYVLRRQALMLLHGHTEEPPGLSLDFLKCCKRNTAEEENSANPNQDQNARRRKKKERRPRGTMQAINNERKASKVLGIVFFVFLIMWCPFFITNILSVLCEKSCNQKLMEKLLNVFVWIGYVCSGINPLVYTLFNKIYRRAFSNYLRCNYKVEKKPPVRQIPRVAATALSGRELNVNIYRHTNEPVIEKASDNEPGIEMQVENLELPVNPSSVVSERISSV

[11] = target: 5-hydroxytryptamine receptor 1B (Homo sapiens) (UniProt P28222); test: Antagonist activity at recombinant human 5HT1B expressed in human HeLa cells assessed as inhibition of serotonin-induced cAMP accumulation at 1 uM measured after 5 mins by TR-FRET assay relative to control; assay type: functional, cell-based
CHO-K1 = test: Cytotoxicity against CHOK1 cells; assay type: cell-based; settings: Cricetulus griseus
[12] = Plasma concentration in ICR mouse at 5 mg/kg, iv measured after 0.5 hrs by LC-MS/MS analysis; assay type: ADME, organism-based
[13] = Volume of distribution at steady state in Sprague-Dawley rat at 5 mg/kg, iv by LC-MS/MS analysis; assay type: ADME, organism-based; settings: in vivo, read-out: Vdss
[14] = AUCt in Sprague-Dawley rat at 5 mg/kg, iv by LC-MS/MS analysis; assay type: ADME, organism-based; settings: in vivo
[15] = Drug level in ICR mouse brain at 5 mg/kg, iv measured after 0.5 hrs by LC-MS/MS analysis; assay type: ADME, organism-based; settings: read-out: Drug uptake
[16] = Ratio of drug level in brain to plasma of ICR mouse at 5 mg/kg, iv measured after 0.5 hrs by LC-MS/MS analysis; assay type: ADME, organism-based; settings: read-out: BPR
HFL1 = test: Cytotoxicity against human HFL1 cells; assay type: cell-based
Mus musculus [17] = test: Protection against 10 week HFD-induced liver disease in C57BL/6J mouse assessed as reduction in epididymal white adipose tissue fat mass at 50 to 100 mg/kg, ip administered daily for 10 weeks and measured post last dose by H and E staining based histological analysis; assay type: functional, organism-based
Mus musculus [18] = test: Protection against 10 week HFD-induced liver disease in C57BL/6J mouse assessed as increase in lead body mass at 100 mg/kg, ip administered daily for 10 weeks and measured post last dose by NMR analysis; assay type: functional, organism-based
Mus musculus [19] = test: Protection against 10 week HFD-induced liver disease in C57BL/6J mouse assessed as reduction in body weight gain at 100 mg/kg, ip administered daily for 10 weeks and measured post HFD stimulation; assay type: functional, organism-based
Mus musculus [20] = test: Protection against 10 week HFD-induced liver disease in C57BL/6J mouse assessed as reduction in body fat accumulation at 100 mg/kg, ip administered daily for 10 weeks and measured post last dose by NMR analysis; assay type: functional, organism-based
[21] = Stability in human liver microsomes assessed as parent compound remaining measured after 30 mins; assay type: ADME, Microsome; settings: read-out: Stability
[22] = target: T4, 5-hydroxytryptamine receptor 1A (Homo sapiens) (UniProt P08908); test: Antagonist activity at human 5HT1A expressed in mouse BA/F3 cells assessed as inhibition of serotonin-induced cAMP accumulation at 1 uM by fluorescence assay relative to control; assay type: functional, cell-based; settings: BaF3
T4 sequence (whole entry): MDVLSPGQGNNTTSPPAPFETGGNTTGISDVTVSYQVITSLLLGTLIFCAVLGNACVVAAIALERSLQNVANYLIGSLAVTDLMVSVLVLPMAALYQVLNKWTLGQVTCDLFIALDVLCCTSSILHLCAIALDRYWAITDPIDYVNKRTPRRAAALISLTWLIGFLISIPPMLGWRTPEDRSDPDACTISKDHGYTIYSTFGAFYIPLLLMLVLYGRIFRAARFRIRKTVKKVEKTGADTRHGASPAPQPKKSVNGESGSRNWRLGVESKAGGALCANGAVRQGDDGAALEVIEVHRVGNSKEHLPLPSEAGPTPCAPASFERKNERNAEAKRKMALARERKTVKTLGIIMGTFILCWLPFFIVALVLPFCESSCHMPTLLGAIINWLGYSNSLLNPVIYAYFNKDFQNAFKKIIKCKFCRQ

Mus musculus [23] = test: Protection against 10 week HFD-induced liver disease in C57BL/6J mouse assessed as reduction in adipocyte size of inguinal white adipose tissue at 50 to 100 mg/kg, ip administered daily for 10 weeks and measured post last dose by H and E staining based histological analysis; assay type: functional, organism-based
NIH3T3 = test: Cytotoxicity against mouse NIH/3T3 cells; assay type: cell-based
[24] = target: 5-hydroxytryptamine receptor 7 (Homo sapiens) (UniProt P34969); test: Antagonist activity at recombinant human 5HT7 receptor expressed in CHOK1 cells assessed as inhibition of serotonin-induced cAMP accumulation at 1 uM measured after 30 mins by HTRF assay relative to control; assay type: functional, cell-based; settings: CHO-K1
[25] = Clearance in Sprague-Dawley rat at 5 mg/kg, iv by LC-MS/MS analysis; assay type: ADME, organism-based; settings: in vivo
[26] = AUC (infinity) in Sprague-Dawley rat at 5 mg/kg, iv by LC-MS/MS analysis; assay type: ADME, organism-based; parameters: dose 5 mg/kg, time infinity, route intravenous; settings: in vivo
[27] = target: T1, 5-hydroxytryptamine receptor 2A; test: Antagonist activity at recombinant human full-length 5HT2A receptor expressed in CHOK1 cells assessed as inhibition of serotonin-induced inositol phosphate accumulation at 1 uM measured after 30 mins by TR-FRET assay relative to control; assay type: functional, cell-based; settings: CHO-K1
Mus musculus [28] = test: Protection against 10 week HFD-induced liver disease in C57BL/6J mouse assessed as reduction in crownlike structure appearance in epididymal white adipose tissue at 50 to 100 mg/kg, ip administered daily for 10 weeks and measured post last dose by H and E staining based histological analysis; assay type: functional, organism-based
Mus musculus [29] = test: Protection against 10 week HFD-induced liver disease in C57BL/6J mouse assessed as reduction in blood glucose level at 100 mg/kg, ip administered daily for 10 weeks and measured 9 weeks post HFD stimulation by IPGTT; assay type: functional, organism-based

T1 sequence (P28223 whole entry): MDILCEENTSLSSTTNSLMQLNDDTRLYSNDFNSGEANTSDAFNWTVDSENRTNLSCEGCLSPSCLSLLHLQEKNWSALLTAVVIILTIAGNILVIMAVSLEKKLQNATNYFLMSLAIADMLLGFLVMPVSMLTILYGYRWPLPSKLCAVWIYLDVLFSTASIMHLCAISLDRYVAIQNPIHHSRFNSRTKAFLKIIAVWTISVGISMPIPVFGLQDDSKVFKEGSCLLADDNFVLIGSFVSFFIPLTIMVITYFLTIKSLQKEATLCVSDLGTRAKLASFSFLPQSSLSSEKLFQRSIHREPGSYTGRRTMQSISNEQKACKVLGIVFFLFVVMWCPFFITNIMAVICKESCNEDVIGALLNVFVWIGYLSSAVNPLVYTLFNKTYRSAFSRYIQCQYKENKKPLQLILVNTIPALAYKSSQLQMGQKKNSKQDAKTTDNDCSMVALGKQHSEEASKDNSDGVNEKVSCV
Sequence of 5-hydroxytryptamine receptor 2B (Homo sapiens) (P41595 whole entry): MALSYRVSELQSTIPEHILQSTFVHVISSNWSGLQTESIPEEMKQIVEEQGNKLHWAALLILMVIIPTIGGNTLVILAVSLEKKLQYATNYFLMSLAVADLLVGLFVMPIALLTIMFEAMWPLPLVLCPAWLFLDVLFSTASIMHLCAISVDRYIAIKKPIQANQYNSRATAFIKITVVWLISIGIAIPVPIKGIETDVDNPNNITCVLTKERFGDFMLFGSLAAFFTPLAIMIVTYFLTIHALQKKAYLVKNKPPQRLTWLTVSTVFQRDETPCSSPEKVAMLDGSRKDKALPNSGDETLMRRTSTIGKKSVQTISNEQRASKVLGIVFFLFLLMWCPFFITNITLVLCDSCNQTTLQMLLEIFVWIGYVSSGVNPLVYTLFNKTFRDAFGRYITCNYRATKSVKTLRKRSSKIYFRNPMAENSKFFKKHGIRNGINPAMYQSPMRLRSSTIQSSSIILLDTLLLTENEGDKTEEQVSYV
Sequence of 5-hydroxytryptamine receptor 1B (Homo sapiens) (P28222 whole entry): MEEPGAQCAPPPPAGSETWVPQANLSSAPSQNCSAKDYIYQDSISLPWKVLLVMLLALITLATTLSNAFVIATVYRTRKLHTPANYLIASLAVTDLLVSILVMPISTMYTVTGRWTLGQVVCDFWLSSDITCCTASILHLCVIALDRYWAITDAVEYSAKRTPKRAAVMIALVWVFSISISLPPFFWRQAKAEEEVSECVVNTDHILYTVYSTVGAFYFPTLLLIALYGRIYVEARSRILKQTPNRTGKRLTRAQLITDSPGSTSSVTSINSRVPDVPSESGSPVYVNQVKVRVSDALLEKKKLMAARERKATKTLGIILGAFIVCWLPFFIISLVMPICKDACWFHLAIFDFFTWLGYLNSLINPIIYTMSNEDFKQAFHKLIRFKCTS
Sequence of hERG (KCNH2) (Q12809 whole entry): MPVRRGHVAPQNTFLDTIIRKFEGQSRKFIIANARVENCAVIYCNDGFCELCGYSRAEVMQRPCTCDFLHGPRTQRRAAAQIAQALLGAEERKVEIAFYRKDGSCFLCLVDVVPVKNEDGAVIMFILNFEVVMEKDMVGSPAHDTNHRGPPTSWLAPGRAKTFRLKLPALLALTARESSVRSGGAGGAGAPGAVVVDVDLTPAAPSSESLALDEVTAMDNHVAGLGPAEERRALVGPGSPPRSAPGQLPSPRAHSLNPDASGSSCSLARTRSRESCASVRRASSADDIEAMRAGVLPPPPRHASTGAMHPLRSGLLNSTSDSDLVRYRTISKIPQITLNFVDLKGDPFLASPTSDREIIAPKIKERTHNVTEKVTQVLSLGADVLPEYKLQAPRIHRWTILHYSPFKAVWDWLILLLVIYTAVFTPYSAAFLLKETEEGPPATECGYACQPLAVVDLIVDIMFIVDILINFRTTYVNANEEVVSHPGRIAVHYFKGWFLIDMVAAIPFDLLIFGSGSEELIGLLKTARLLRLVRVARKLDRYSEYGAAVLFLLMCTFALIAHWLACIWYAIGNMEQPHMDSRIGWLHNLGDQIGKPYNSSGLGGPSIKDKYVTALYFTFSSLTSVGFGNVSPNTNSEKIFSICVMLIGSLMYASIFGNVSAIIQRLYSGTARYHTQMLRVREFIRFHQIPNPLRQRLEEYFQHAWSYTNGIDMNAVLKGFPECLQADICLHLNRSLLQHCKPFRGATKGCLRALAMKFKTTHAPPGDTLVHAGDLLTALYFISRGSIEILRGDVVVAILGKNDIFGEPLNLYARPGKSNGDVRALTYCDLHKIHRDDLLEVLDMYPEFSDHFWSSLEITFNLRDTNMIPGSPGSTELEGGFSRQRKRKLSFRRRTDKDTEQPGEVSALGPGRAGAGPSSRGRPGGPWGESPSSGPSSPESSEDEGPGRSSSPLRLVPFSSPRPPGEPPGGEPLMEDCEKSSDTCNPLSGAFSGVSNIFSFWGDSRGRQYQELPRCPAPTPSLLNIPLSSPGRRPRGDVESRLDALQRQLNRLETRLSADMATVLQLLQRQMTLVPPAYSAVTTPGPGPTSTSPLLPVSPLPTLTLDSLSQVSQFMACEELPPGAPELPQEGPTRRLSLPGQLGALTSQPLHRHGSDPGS
Sequence of 5-hydroxytryptamine receptor 7 (Homo sapiens) (P34969 whole entry): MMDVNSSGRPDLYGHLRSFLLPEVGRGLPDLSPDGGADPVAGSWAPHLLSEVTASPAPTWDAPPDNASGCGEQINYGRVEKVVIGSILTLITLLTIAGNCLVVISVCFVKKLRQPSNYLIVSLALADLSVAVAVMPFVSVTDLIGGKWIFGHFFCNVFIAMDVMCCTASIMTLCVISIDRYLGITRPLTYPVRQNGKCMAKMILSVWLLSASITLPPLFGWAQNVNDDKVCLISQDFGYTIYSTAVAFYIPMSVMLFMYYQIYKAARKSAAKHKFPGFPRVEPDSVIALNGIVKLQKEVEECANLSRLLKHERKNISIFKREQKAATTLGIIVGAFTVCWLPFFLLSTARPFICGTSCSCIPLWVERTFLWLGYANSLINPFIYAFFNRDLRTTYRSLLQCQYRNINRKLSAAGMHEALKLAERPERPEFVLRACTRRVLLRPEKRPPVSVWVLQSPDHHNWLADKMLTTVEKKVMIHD

## CC(C)COc1ccc(CNC(=O)N(Cc2ccc(F)cc2)C2CCN(C(=S)NC(C)C)CC2)cc1
[1]
  IC50: 1130 nM

## CC(C)COc1ccc(CNC(=O)N(Cc2ccc(F)cc2)C2CCN(C(=O)CCC(=O)O)CC2)cc1
[1]
  IC50: 317 nM

## CC(C)COc1ccc(CNC(=O)N(Cc2ccc(F)cc2)C2CCN(C(=O)CC[C@H](N)C(=O)O)CC2)cc1
Mus musculus [2]
  Activity: Active
Vero
  IC50: 54700 nM
[3]
  inhibition: -5%
Mus musculus [4]
  Activity: Active
Mus musculus [5]
  Activity: Active
Mus musculus [6]
  Activity: Active
Mus musculus [7]
  Activity: Active
hERG (KCNH2)
  inhibition at 10 µM: 18.7%
L929
  IC50: 64000 nM
[8]
  half-life: 16.9 h
In vitro
  remaining at 0.5 h: 84%
[9]
  inhibition: 7%
[10]
  inhibition: 63.8%
[11]
  inhibition: 6%
CHO-K1
  IC50: 51000 nM
[1]
  IC50: 8.35 nM
[12]
  concentration at 0.5 h: 416 ng/mL
[13]
  Vd: 11 L/kg
[14]
  AUC(0-t): 1910 ng·h/mL
[15]
  concentration at 0.5 h: 15.1 ng/g
[16]
  Kp at 0.5 h: 0.038
HFL1
  IC50: 55200 nM
Mus musculus [17]
  Activity: Active
Mus musculus [18]
  Activity: Active
Mus musculus [19]
  Activity: Active
Mus musculus [20]
  Activity: Active
[21]
  remaining at 0.5 h: 89%
[22]
  inhibition: -2.8%
Mus musculus [23]
  Activity: Active
NIH3T3
  IC50: 18200 nM
[24]
  inhibition: 6.3%
[25]
  clearance: 41 mL/min/kg
[26]
  AUC(0-inf): 2030 ng·h/mL
[27]
  inhibition: 93%
Mus musculus [28]
  Activity: Active
Mus musculus [29]
  Activity: Active

## CN1CCC(N(Cc2ccc(F)cc2)C(=O)NCc2ccc(OCC(O)CN3CCN(c4nsc5ccccc45)CC3)cc2)CC1 (stereo unspecified)
[1]
  IC50: 0.87 nM

## CC(C)COc1ccc(CNC(=O)N(Cc2ccc(F)cc2)C2CCN(C(=O)C[C@H](N)C(=O)O)CC2)cc1
[1]
  IC50: 34.6 nM

## CC(C)COc1ccc(CNC(=O)N(Cc2ccc(F)cc2)C2CCNCC2)cc1
[1]
  IC50: 0.6 nM
